Laboratory results reported in patent US8906952B2, “Indole derivative or pharmaceutically acceptable salt thereof, preparation method thereof, and pharmaceutical composition for preventing or treating metabolic diseases containing same as active ingredient” (Korea Research Institute of Bioscience and Biotechnology, priority 2011, dated 2014).
Read-outs that look alike come from different tables or passages of the source.

Experiments:
Format in all cases: biochemical
human DGAT2 = target: T1, human DGAT2 (Homo sapiens, UniProt Q96PD7); assay: DGAT enzyme inhibition test, hDGAT2 enzyme from sf9 insect cells (DGAT2 selectivity)
T1 construct: made in house; host or cells: sf9 insect cells
T1 sequence (Q96PD7 1-388): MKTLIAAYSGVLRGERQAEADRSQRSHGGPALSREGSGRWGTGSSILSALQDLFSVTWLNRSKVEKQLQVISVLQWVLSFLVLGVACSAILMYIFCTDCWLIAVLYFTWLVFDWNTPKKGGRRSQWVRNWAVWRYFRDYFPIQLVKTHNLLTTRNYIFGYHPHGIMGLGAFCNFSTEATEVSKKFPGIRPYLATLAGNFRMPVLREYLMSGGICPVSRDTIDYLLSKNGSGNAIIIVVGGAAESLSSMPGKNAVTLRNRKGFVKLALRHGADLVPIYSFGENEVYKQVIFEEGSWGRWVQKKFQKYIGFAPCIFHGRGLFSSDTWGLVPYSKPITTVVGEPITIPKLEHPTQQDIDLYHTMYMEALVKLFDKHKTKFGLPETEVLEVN
Description: (§1) To investigate inhibitory effect of the compounds of Examples 1-33 against DGAT enzyme activity, DGAT enzyme inhibition and DGAT2 selectivity were investigated using zymogen including:
1) hDGAT1 and hDGAT2 enzymes, derived from insect cell overexpressing human DGAT1 and DGAT2 (‘sf9’), respectively,
(§2) To be specific, for the purpose of measuring human-derived DGAT enzyme inhibitory activity, using the zymogen, including enzymes derived from insect cell overexpressing human DGAT1 and DGAT2 (‘sf9’), microsomal protein isolated from human duodenal adenocarcinoma (‘Hutu 80’), and microsomal protein isolated from rat, and according to Coleman et al., (Methods Enzymol., 98-103, 1992), and substrate including 1,2-diacylglycerol(Sigma, D0138) and [^14C]palmitoyl-CoA (Amersham, CFA583), the amount of radiation of [^14C]triacylglycerol produced after enzymatic reaction was measured.
(§3) To be more specific, to the reaction solution containing 175 mM Tris-HCl (pH 8.0), 20 μl bovine serum albumin (10 mg/ml), 100 mM magnesium chloride, 30 μM [^14C]palmitoyl CoA (0.02 μCi, Amersham) and 200 μM 1,2-dioleoylglycerol, reagent dissolved in dimethylsulfoxide (10.0 μl) was added. After introducing 100 to 200 μg isolated microsomal protein and allowing the same to react at 25° C. for 10 min, the reaction was stopped by adding 1.5 ml stop solution (2-propanol:heptane:water=80:20:2, v:v:v). To isolate the product of the reaction (i.e., [^14C]triacylglycerol), 1 ml heptane and 0.5 ml distilled water were added and then decocted. After taking 1 ml supernatant, 2 ml alkaline ethanol solution (ethanol:0.5 N sodium hydroxide:water=50:10:40, v:v:v) were added and then decocted. After taking 0.65 ml supernatant from the decoction, the amount of radiation was measured with liquid scintillation counter (LSC). The DGAT inhibitory activity was calculated with Mathematical Expression 1 below:
(§4) T denotes cpm of experimental group in which the enzymatic reaction solution was treated with the sample,
(§5) C denotes cpm of control group in which the enzymatic reaction solution was not treated with the sample, and
(§6) B denotes cpm of control group treated with the sample without zymogen.

hDGAT-1 (HuTu 80) = target: T2, hDGAT-1 (HuTu 80) (Homo sapiens, UniProt O75907); assay: DGAT enzyme inhibition test, microsomal protein from human duodenal adenocarcinoma (Hutu 80); settings: microsomal protein from HuTu 80
T2 construct: microsomal protein isolated from human duodenal adenocarcinoma (‘Hutu 80’); endogenous in cells; host or cells: HuTu 80 human duodenal adenocarcinoma cells (microsomes)
T2 sequence (O75907 1-488): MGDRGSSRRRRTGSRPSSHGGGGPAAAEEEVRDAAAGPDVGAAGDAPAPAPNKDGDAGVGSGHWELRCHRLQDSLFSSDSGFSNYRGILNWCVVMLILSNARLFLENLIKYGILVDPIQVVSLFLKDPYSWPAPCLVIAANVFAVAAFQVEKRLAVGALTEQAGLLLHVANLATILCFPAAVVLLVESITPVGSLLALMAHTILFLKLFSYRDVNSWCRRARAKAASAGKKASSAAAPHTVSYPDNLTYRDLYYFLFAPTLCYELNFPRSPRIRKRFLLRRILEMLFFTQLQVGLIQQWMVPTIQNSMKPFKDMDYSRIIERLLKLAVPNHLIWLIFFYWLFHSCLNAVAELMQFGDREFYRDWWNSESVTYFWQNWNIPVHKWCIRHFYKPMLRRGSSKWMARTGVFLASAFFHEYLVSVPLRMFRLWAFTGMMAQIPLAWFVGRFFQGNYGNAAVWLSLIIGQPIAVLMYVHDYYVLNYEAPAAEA
Description: as §1
2) DGAT enzyme derived from human duodenal adenocarcinoma (‘Hutu 80’), and
as §2, §3, §4, §5, §6

DGAT-1 (rat liver) = target: T3, DGAT-1 (rat liver) (Rattus norvegicus, UniProt Q9ERM3); assay: DGAT enzyme inhibition test, rat liver-derived DGAT enzyme; settings: rat liver microsomal protein
T3 construct: microsomal protein isolated from rat; from tissue; host or cells: rat liver microsomes
T3 sequence (Q9ERM3 1-498): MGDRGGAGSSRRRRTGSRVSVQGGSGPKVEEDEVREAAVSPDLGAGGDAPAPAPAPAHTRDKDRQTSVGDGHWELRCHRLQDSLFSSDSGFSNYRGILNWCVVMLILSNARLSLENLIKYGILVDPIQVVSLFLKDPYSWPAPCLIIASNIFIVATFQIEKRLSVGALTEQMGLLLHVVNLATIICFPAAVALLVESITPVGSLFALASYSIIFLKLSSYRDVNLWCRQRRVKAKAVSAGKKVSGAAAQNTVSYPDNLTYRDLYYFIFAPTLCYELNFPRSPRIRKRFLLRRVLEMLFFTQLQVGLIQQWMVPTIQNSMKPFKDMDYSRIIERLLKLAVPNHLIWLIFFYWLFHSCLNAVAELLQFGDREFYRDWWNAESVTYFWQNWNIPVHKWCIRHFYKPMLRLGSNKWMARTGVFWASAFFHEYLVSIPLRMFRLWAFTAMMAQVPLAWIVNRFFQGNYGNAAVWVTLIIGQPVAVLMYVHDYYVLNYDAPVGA
Description: as §1
3) rat liver-derived DGAT enzyme.
as §2, §3, §4, §5, §6

[1] = 10 μM, enzyme from sf9 cells overexpressing hDGAT2, read-out: hDGAT-2 (sf9) inhibition rate(%)at 10 μM
[2] = concentration of 10 μM, read-out: hDGAT2 inhibition

Row | SMILES | inhibition at 10 µM (human DGAT2; [1]) [%] | IC50 (hDGAT-1 (HuTu 80)) [µM] | IC50 (DGAT-1 (rat liver)) [µM] | inhibition at 10 µM (human DGAT2; [2]) [%]
1 | CC(C)N(NC(=O)c1cccc(OCCN2CCOCC2)c1)C(=O)/C=C/c1cn(C(=O)OC(C)(C)C)c2ccccc12 [Example 8, (E)-tert-butyl 3-(3-(1-isopropyl-2-(3-(2-morpholinoethoxy)benzoyl)hydrazinyl)-3-oxoprop-1-enyl)-1H-indole-1-carboxylate] | < 0 | 9.3 | 2.5 | 
2 | COC(=O)COc1cccc(C(=O)NN(C(=O)/C=C/c2cn(C(=O)OC(C)(C)C)c3ccccc23)C(C)C)c1 [Example 18, (E)-tert-butyl 3-(3-(1-isopropyl-2-(3-(2-methoxy-2-oxoethoxy)benzoyl)hydrazinyl)-3-oxoprop-1-enyl)-1H-indole-1-carboxylate] | < 0 | 3.2 | 20.3 | 
3 | CC(C)N(NC(=O)c1cccc(F)c1)C(=O)/C=C/c1cn(C(=O)OC(C)(C)C)c2ccccc12 [Example 15, (E)-tert-butyl 3-(3-(2-(3-fluorobenzoyl)-1-isopropylhydrazinyl)-3-oxoprop-1-enyl)-1H-indole-1-carboxylate] | < 0 | 1.1 | 0.4 | < 11
4 | CC(C)N(NC(=O)c1ccc(Br)cc1)C(=O)/C=C/c1cn(C(=O)OC(C)(C)C)c2ccccc12 [Example 13, (E)-tert-butyl 3-(3-(2-(4-bromobenzoyl)-1-isopropylhydrazinyl)-3-oxoprop-1-enyl)-1H-indole-1-carboxylate] | 2.3 | 8.1 | 9.1 | < 11
5 | CC(C)N(NC(=O)c1ccccc1)C(=O)/C=C/c1c[nH]c2ccccc12 [Example 22, (E)-N′-(3-(1H-indol-3-yl)acryloyl)-N′-isopropylbenzohydrazide] | < 0 | 44.6 | 33 | 
6 | CC(C)N(NC(=O)c1ccccc1)C(=O)/C=C/c1cn(C(=O)CC(C)(C)C)c2ccccc12 [Example 33, (E)-N′-(3-(1-(3,3-dimethylbutanoyl)-1H-indol-3-yl)acryloyl)-N′-isopropylbenzohydrazide] | < 0 | 2.1 | 1.4 | < 11
7 | CC(C)N(NC(=O)c1ccccc1)C(=O)CCc1c[nH]c2ccccc12 [Example 23, N′-(3-(1H-indol-3-yl)propanoyl)-N′-isopropylbenzohydrazide] | < 0 | 25.8 | 31.4 | 
8 | CC(C)=CCn1cc(/C=C/C(=O)N(NC(=O)c2ccc(F)cc2)C(C)C)c2ccccc21 [Example 49, (E)-4-fluoro-N′-isopropyl-N′-(3-(1-(3-methylbut-2-enyl)-1H-indol-3-yl)acryloyl)benzohydrazide] | 28 |  |  | 
9 | CC(C)N(NC(=O)c1cccnc1)C(=O)/C=C/c1cn(C(=O)OC(C)(C)C)c2ccccc12 [Example 3, (E)-tert-butyl 3-(3-(1-isopropyl-2-nicotinoylhydrazinyl)-3-oxoprop-1-enyl)-1H-indole-1-carboxylate] | < 0 | 6.5 | 3.9 | 
10 | CC(=O)n1cc(/C=C/C(=O)N(NC(=O)c2ccccc2)C(C)C)c2ccccc21 [Example 30, (E)-N′-(3-(1-acetyl-1H-indol-3-yl)acryloyl)-N′-isopropylbenzohydrazide] | < 0 | 27 | 22.5 | 
11 | CC(C)N(NC(=O)c1ccccc1)C(=O)/C=C/c1cn(C)c2ccccc12 [Example 25] | < 0 | 29.2 | 9.3 | 
12 | Cc1ccc(C(=O)NN(C(=O)/C=C/c2cn(C(=O)OC(C)(C)C)c3ccccc23)C(C)C)cc1 [Example 48, (E)-tert-butyl 3-(3-(1-isopropyl-2-(4-methylbenzoyl)hydrazinyl)-3-oxoprop-1-enyl)-1H-indole-1-carboxylate] | 22.1 |  |  | 
13 | CC(C)N(NC(=O)c1cccc(OCC(N)=O)c1)C(=O)/C=C/c1cn(C(=O)OC(C)(C)C)c2ccccc12 [Example 20, (E)-tert-butyl 3-(3-(2-(3-(2-amino-2-oxoethoxy)benzoyl)-1-isopropylhydrazinyl)-3-oxoprop-1-enyl)-1H-indole-1-carboxylate] | < 0 | 73.3 | > 100 | 
14 | CC(C)N(NC(=O)c1ccccc1)C(=O)/C=C/c1cn(Cc2ccccc2)c2ccccc12 [Example 26, (E)-N′-(3-(1-benzyl-1H-indol-3-yl)acryloyl)-N′-isopropylbenzohydrazide] | 5 | 2.9 | 2.4 | < 11
15 | CC(C)(C)OC(=O)n1cc(/C=C/C(=O)NNC(=O)c2ccccc2)c2ccccc21 [Example 16, (E)-tert-butyl 3-(3-(2-benzoylhydrazinyl)-3-oxoprop-1-enyl)-1H-indole-1-carboxylate] | 3.7 | 10.7 | 26.3 | 
16 | COc1cccc(C(=O)NN(C(=O)/C=C/c2cn(C(=O)OC(C)(C)C)c3ccccc23)C(C)C)c1 [Example 6, (E)-tert-butyl 3-(3-(1-isopropyl-2-(3-methoxybenzoyl)hydrazinyl)-3-oxoprop-1-enyl)-1H-indole-1-carboxylate] | 0.3 | 5.2 | 2.1 | 
17 | CC(C)CCn1cc(/C=C/C(=O)N(NC(=O)c2ccc(F)cc2)C(C)C)c2ccccc21 [Example 46, (E)-4-fluoro-N′-(3-(1-isopentyl-1H-indol-3-yl)acryloyl)-N′-isopropylbenzohydrazide] | 64 |  |  | 
18 | CC(C)N(NC(=O)c1ccc(F)cc1)C(=O)/C=C/c1cn(C(=O)OC(C)(C)C)c2ccccc12 [Example 44, (E)-tert-butyl 3-(3-(2-(4-fluorobenzoyl)-1-isopropylhydrazinyl)-3-oxoprop-1-enyl)-1H-indole-1-carboxylate] | 28.9 |  |  | 
19 | Cc1cccc(C(=O)NN(C(=O)/C=C/c2cn(C(=O)OC(C)(C)C)c3ccccc23)C(C)C)c1 [Example 47, (E)-tert-butyl 3-(3-(1-isopropyl-2-(3-methylbenzoyl)hydrazinyl)-3-oxoprop-1-enyl)-1H-indole-1-carboxylate] | 34.1 |  |  | 
